Results published in patent US7553966B2, “Glucocorticoid mimetics, methods of making them, pharmaceutical compositions, and uses thereof” (Boehringer Ingelheim Pharmaceuticals, Inc., priority 2002, dated 2009).

Legend:
glucocorticoid receptor = assay: Glucocorticoid Receptor Cell Assays (agonist activity in one or more of the above assays); format: cell-based; details: qualitative statement; assay not specified
[1] = target: T1, human glucocorticoid receptor (GR) complex (Homo sapiens, UniProt P04150); assay: Glucocorticoid Receptor Competitive Binding Assay (fluorescence polarization, TAMRA-labeled dexamethasone probe); details: qualitative statement; competition with TAMRA-labeled dexamethasone
T1 construct: made in house; host or cells: insect expression system (baculovirus lysate)
T1 sequence (P04150 1-777): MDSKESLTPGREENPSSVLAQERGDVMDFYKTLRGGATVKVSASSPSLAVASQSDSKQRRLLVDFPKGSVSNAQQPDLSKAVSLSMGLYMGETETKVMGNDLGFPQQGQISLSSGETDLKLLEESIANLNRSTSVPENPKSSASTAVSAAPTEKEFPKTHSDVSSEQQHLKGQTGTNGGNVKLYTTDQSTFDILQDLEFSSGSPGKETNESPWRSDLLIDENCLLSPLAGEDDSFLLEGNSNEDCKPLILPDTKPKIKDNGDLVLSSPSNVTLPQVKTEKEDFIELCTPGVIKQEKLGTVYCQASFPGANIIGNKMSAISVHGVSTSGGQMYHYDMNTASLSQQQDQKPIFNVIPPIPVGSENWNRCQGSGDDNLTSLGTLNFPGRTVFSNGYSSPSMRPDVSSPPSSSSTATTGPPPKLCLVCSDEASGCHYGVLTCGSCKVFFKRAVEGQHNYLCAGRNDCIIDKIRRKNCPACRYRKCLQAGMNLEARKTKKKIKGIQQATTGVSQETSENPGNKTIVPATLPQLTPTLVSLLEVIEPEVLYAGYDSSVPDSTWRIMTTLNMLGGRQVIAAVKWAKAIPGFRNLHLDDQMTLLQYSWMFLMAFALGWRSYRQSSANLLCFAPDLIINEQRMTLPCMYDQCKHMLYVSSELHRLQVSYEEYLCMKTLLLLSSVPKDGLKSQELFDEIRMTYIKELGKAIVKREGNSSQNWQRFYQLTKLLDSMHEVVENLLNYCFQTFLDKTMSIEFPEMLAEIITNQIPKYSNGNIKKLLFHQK
Method in brief: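 Competition with TAMRA-dexamethasone for a human GR complex expressed in insect cells, read by fluorescence polarization. Buffer was 10 mM TES, 50 mM KCl, 20 mM Na2MoO4, 1.5 mM EDTA, 0.04% CHAPS, 10% glycerol, 1 mM DTT, pH 7.4.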

Row | activity in the GR binding assay [1] | SMILES | activity as agonists of the glucocorticoid receptor function in one or more of the above assays (glucocorticoid receptor)
1 | potent activity | Cc1ccc(F)cc1C(C)(C)CC(O)(Cc1cc2cc(C#N)ccc2[nH]1)C(F)(F)F (stereo not drawn) [2-[4-(5-Fluoro-2-methylphenyl)-2-hydroxy-4-methyl-2-trifluoromethylpentyl]-1H-indole-5-carbonitrile] | potent agonists
2 | potent activity | Cc1ccc(F)cc1C(C)(C)CC(O)(Cc1cc2c(C)cc(C#N)cc2[nH]1)C(F)(F)F (stereo not drawn) [2-[4-(5-Fluoro-2-methylphenyl)-2-hydroxy-4-methyl-2-trifluoromethylpentyl]-4-methyl-1H-indole-6-carbonitrile] | potent agonists
3 | potent activity | CC(C)(CC(O)(Cc1cc2ccncc2[nH]1)C(F)(F)F)c1cccc2c1OCC2 (stereo not drawn) [4-(2,3-Dihydrobenzofuran-7-yl)-1,1,1-trifluoro-4-methyl-2-(1H-pyrrolo[2,3-c]pyridin-2-ylmethyl)pentan-2-ol] | potent agonists
4 | potent activity | CC(C)(CC(O)(Cc1cc2cnccc2[nH]1)C(F)(F)F)c1cccc2c1OCC2 (stereo not drawn) [4-(2,3-Dihydrobenzofuran-7-yl)-1,1,1-trifluoro-4-methyl-2-(1H-pyrrolo[3,2-c]pyridin-2-ylmethyl)pentan-2-ol] | potent agonists
5 | potent activity | CC(C)(CC(O)(Cc1ccnc2ccccc12)C(F)(F)F)c1cccc2c1OCC2 (stereo not drawn) [4-(2,3-Dihydrobenzofuran-7-yl)-1,1,1-trifluoro-4-methyl-2-quinolin-4-ylmethylpentan-2-ol] | potent agonists
6 | potent activity | CC(C)(CC(O)(Cc1cc2ccccc2[nH]1)C(F)(F)F)c1cccc2c1OCC2 (stereo not drawn) [4-(2,3-dihydrobenzofuran-7-yl)-1,1,1-trifluoro-2-(1H-indol-2-ylmethyl)-4-methylpentan-2-ol] | potent agonists
7 | potent activity | CC(C)(CC(O)(Cc1cc2ccccc2[nH]1)C(F)(F)F)c1cc(Br)cc2c1OCC2 (stereo not drawn) [4-(5-Bromo-2,3-dihydrobenzofuran-7-yl)-1,1,1-trifluoro-2-(1H-indol-2-ylmethyl)-4-methylpentan-2-ol] | potent agonists
8 | potent activity | CC(C)(CC(O)(Cc1ccnc2ccccc12)C(F)(F)F)c1cc(Br)cc2c1OCC2 (stereo not drawn) [4-(5-Bromo-2,3-dihydrobenzofuran-7-yl)-1,1,1-trifluoro-4-methyl-2-quinolin-4-ylmethylpentan-2-ol] | potent agonists
9 | potent activity | COc1ccc(Br)cc1C(C)(C)CC(O)(Cc1cc2ccccc2[nH]1)C(F)(F)F (stereo not drawn) [4-(5-Bromo-2-methoxyphenyl)-1,1,1-trifluoro-2-(1H-indol-2-ylmethyl)-4-methylpentan-2-ol] | potent agonists
10 | potent activity | COc1ccc(Br)cc1C(C)(C)CC(O)(Cc1ccnc2ccccc12)C(F)(F)F (stereo not drawn) [4-(5-Bromo-2-methoxyphenyl)-1,1,1-trifluoro-4-methyl-2-quinolin-4-ylmethylpentan-2-ol] | potent agonists
11 | potent activity | COc1cc(F)c(Br)cc1C(C)(C)CC(O)(Cc1ccnc2ccccc12)C(F)(F)F (stereo not drawn) [4-(5-Bromo-4-fluoro-2-methoxyphenyl)-1,1,1-trifluoro-4-methyl-2-quinolin-4-ylmethylpentan-2-ol] | potent agonists
12 | potent activity | CC(C)(CC(O)(Cc1ccnc2ccccc12)C(F)(F)F)c1cc(Br)c2c(c1)CCO2 (stereo not drawn) [4-(7-Bromo-2,3-dihydrobenzofuran-5-yl)-1,1,1-trifluoro-4-methyl-2-quinolin-4-ylmethylpentan-2-ol] | potent agonists
13 | potent activity | CC(C)(CC(O)(Cc1ccnc2ccccc12)C(F)(F)F)c1cc(Br)ccc1O (stereo not drawn) [4-Bromo-2-(4,4,4-trifluoro-3-hydroxy-1,1-dimethyl-3-quinolin-4-ylmethylbutyl)phenol] | potent agonists
14 | potent activity | CC(C)(CC(O)(Cc1cc2ccncc2[nH]1)C(F)(F)F)c1cc(F)ccc1O (stereo not drawn) [4-Fluoro-2-[4,4,4-trifluoro-3-hydroxy-1,1-dimethyl-3-(1H-pyrrolo[2,3-c]pyridin-2-ylmethyl)butyl]phenol] | potent agonists
15 | potent activity | CC(C)(CC(O)(Cc1cc2cnccc2[nH]1)C(F)(F)F)c1cc(F)ccc1O (stereo not drawn) [4-Fluoro-2-[4,4,4-trifluoro-3-hydroxy-1,1-dimethyl-3-(1H-pyrrolo[3,2-c]pyridin-2-ylmethyl)butyl]phenol] | potent agonists
16 | potent activity | Cc1cccc2[nH]c(CC(O)(CC(C)(C)c3cc(F)ccc3O)C(F)(F)F)cc12 (stereo not drawn) [4-Fluoro-2-[4,4,4-trifluoro-3-hydroxy-1,1-dimethyl-3-(4-methyl-1H-indol-2-ylmethyl)butyl]phenol] | potent agonists
17 | potent activity | CC(C)(CC(O)(Cc1ccnc2ccccc12)C(F)(F)F)c1ccc(F)cc1O (stereo not drawn) [5-Fluoro-2-(4,4,4-trifluoro-3-hydroxy-1,1-dimethyl-3-quinolin-4-ylmethylbutyl)phenol] | potent agonists
18 | potent activity | CC(C)(CC(O)(Cc1cc2ccncc2[nH]1)C(F)(F)F)c1ccc(F)cc1O (stereo not drawn) [5-Fluoro-2-[4,4,4-trifluoro-3-hydroxy-1,1-dimethyl-3-(1H-pyrrolo[2,3-c]pyridin-2-ylmethyl)butyl]phenol] | potent agonists
